The results in this text go back to patent publication US20240050428A1 (Cullgen (Shanghai), Inc., priority 2020, published 2024).

One test concerns MOLM-13 cells. In words: Cell viability assay (CellTiter-Glo) in MOLM-13 cells, alone or with gilteritinib. It is filed as cell-based. The following applies: Homo sapiens, MOLM-13 cells, three days, CellTiter-Glo.
The subject of the next test is MV4;11 cells. In words: Cell viability assay (CellTiter-Glo) in MV4;11 cells, alone or with gilteritinib. It is filed as cell-based. The following applies: Homo sapiens, MV4;11 cells, three days, CellTiter-Glo, read-out: MV4.
Setting [1] is: MOLM-13, 72 h, compound alone (without gilteritinib), read-out: MOLM-13 IC50.
The mark [2] stands for this setting: MOLM-13, 72 h, with gilteritinib 20 nM, read-out: MOLM-13 IC50 gilteritinib.
Where [3] appears, read: MV4-11, 72 h, compound alone (without gilteritinib), 11 IC50.
Setting [4] is: MV4-11, 72 h, with gilteritinib 10 nM, 11 IC50 gilteritinib.
[5] abbreviates: 72 h, compound alone (without gilteritinib), read-out: MOLM-13 IC50.
Where [6] appears, read: 72 h, with gilteritinib 20 nM, read-out: MOLM-13 IC50 gilteritinib.
The mark [7] stands for this setting: 72 h, compound alone (without gilteritinib), 11 IC50.
Setting [8] is: 72 h, with gilteritinib 10 nM, 11 IC50 gilteritinib.

Structures are written as SMILES. Like-named read-outs stand apart in the source and are kept apart here.

As to `O=C1CCC(N2C(=O)c3ccc(NCCCN4CCC(n5cc(-c6cnc7ccccc7n6)cn5)CC4)cc3C2=O)C(=O)N1` (stereo not drawn) [GS-343], the IC50 in the test on MOLM-13 cells (setting [1]) is 100 to 1000 nM; in the test on MOLM-13 cells (setting [2]), 10 to 100 nM; with MV4;11 cells (setting [3]), above 1000 nM; in the test with MV4;11 cells (setting [4]), above 1000 nM.

For the compound `O=C1CCC(N2C(=O)c3ccc(NCCCN4CCC(N5CCN(c6ccccn6)CC5)C4)cc3C2=O)C(=O)N1` (stereo not drawn) [GS-344, 2-(2,6-Dioxopiperidin-3-yl)-5-((3-(3-(4-(pyridin-2-yl)piperazin-1-yl)pyrrolidin-1-yl)propyl)amino)isoindoline-1,3-dione], the IC50 with MOLM-13 cells (setting [1]), with MOLM-13 cells (setting [2]), with MV4;11 cells (setting [3]) and in the test with MV4;11 cells (setting [4]) was above 1000 nM in each case.

Consider `O=C(CN1CC(N2CCN(c3ccccn3)CC2)C1)NCc1ccc2c(c1)C(=O)N(C1CCC(=O)NC1=O)C2=O` (stereo not drawn) [GS-345, N-((2-(2,6-Dioxopiperidin-3-yl)-1,3-dioxoisoindolin-5-yl)methyl)-2-(3-(4-(pyridin-2-yl)piperazin-1-yl)azetidin-1-yl)acetamide], for which the IC50 in the test on MOLM-13 cells (setting [1]), in the test on MOLM-13 cells (setting [2]), in the test with MV4;11 cells (setting [3]) and in the test with MV4;11 cells (setting [4]) was above 1000 nM in each case.

On to `O=C(CN1CCCC(n2cc(-c3cnc4ccccc4n3)cn2)C1)NCc1ccc2c(c1)C(=O)N(C1CCC(=O)NC1=O)C2=O` (stereo not drawn) [GS-346, N-((2-(2,6-Dioxopiperidin-3-yl)-1,3-dioxoisoindolin-5-yl)methyl)-2-(3-(4-(quinoxalin-2-yl)-1H-pyrazol-1-yl)piperidin-1-yl)acetamide], for which the IC50 in the test with MOLM-13 cells (setting [1]), in the test with MOLM-13 cells (setting [2]), in the test with MV4;11 cells (setting [3]) and in the test with MV4;11 cells (setting [4]) was above 1000 nM each time.

Turning to `O=C1CCC(N2C(=O)c3ccc(NCCCN4CCCC(n5cc(-c6cnc7ccccc7n6)cn5)C4)cc3C2=O)C(=O)N1` (stereo not drawn) [GS-347, 2-(2,6-Dioxopiperidin-3-yl)-5-((3-(3-(4-(quinoxalin-2-yl)-1H-pyrazol-1-yl)piperidin-1-yl)propyl)amino)isoindoline-1,3-dione], the IC50 was above 1000 nM with MOLM-13 cells (setting [1]), 10 to 100 nM in the test with MOLM-13 cells (setting [2]), above 1000 nM in the test on MV4;11 cells (setting [3]) and above 1000 nM in the test with MV4;11 cells (setting [4]).

Regarding `O=C1CCC(N2C(=O)c3ccc(NCCCCCC(=O)N4CCC(F)(c5ccccc5)CC4)cc3C2=O)C(=O)N1` (stereo not drawn) [GS-348, 2-(2,6-Dioxopiperidin-3-yl)-5-((6-(4-fluoro-4-phenylpiperidin-1-yl)-6-oxohexyl)amino)isoindoline-1,3-dione], the IC50 with MOLM-13 cells (setting [1]) is 10 to 100 nM; in the test on MOLM-13 cells (setting [2]), below 10 nM; in the test on MV4;11 cells (setting [3]) it was 10 to 100 nM; in the test with MV4;11 cells (setting [4]) it was below 10 nM.

Turning to `O=C1CCC(N2C(=O)c3ccc(CNC(=O)NC4CCCC(n5cc(-c6cnc7ccccc7n6)cn5)C4)cc3C2=O)C(=O)N1` (stereo not drawn) [GS-349, 1-((2-(2,6-Dioxopiperidin-3-yl)-1,3-dioxoisoindolin-5-yl)methyl)-3-(3-(4-(quinoxalin-2-yl)-1H-pyrazol-1-yl)cyclohexyl)urea], the IC50 lay in the range of 100 to 1000 nM with MOLM-13 cells (setting [1]), 10 to 100 nM with MOLM-13 cells (setting [2]), 10 to 100 nM with MV4;11 cells (setting [3]) and 10 to 100 nM with MV4;11 cells (setting [4]).

As for `O=C1CCC(N2C(=O)c3ccc(NCCCN4CCCC(N5CCN(c6ccccn6)CC5)C4)cc3C2=O)C(=O)N1` (stereo not drawn) [GS-350, 2-(2,6-Dioxopiperidin-3-yl)-5-((3-(3-(4-(pyridin-2-yl)piperazin-1-yl)piperidin-1-yl)propyl)amino)isoindoline-1,3-dione], the IC50 in the test with MOLM-13 cells (setting [1]) was above 1000 nM; in the test with MOLM-13 cells (setting [2]) it was below 10 nM; with MV4;11 cells (setting [3]), above 1000 nM; in the test on MV4;11 cells (setting [4]), above 1000 nM.

As for `O=C1CCC(N2C(=O)c3ccc(NCCNc4cccc(N5CCC(n6cc(-c7cnc8ccccc8n7)cn6)CC5)c4)cc3C2=O)C(=O)N1` (stereo not drawn) [GS-351, 2-(2,6-Dioxopiperidin-3-yl)-5-((2-((3-(4-(4-(quinoxalin-2-yl)-1H-pyrazol-1-yl)piperidin-1-yl)phenyl)amino)ethyl)amino)isoindoline-1,3-dione], the IC50 with MOLM-13 cells (setting [5]) was 10 to 100 nM; with MOLM-13 cells (setting [6]), below 10 nM; in the test with MV4;11 cells (setting [7]) it was 10 to 100 nM; with MV4;11 cells (setting [8]), 10 to 100 nM.

In the case of `O=C1CCC(N2C(=O)c3ccc(CCCCCCCn4cc(-c5cnc6ccccc6n5)cn4)cc3C2=O)C(=O)N1` (stereo not drawn) [GS-352, 2-(2,6-Dioxopiperidin-3-yl)-5-(7-(4-(quinoxalin-2-yl)-1H-pyrazol-1-yl)heptyl)isoindoline-1,3-dione], the IC50 with MOLM-13 cells (setting [1]) is above 1000 nM; in the test with MOLM-13 cells (setting [2]), 100 to 1000 nM; with MV4;11 cells (setting [3]) it was 100 to 1000 nM; in the test with MV4;11 cells (setting [4]), 100 to 1000 nM.

On to `O=C1CCC(N2C(=O)c3ccc(NCCNc4cccc(-n5cc(-c6cnc7ccccc7n6)cn5)c4)cc3C2=O)C(=O)N1` (stereo not drawn) [GS-353, 2-(2,6-Dioxopiperidin-3-yl)-5-((2-((3-(4-(quinoxalin-2-yl)-1H-pyrazol-1-yl)phenyl)amino)ethyl)amino)isoindoline-1,3-dione], for which the IC50 in the test with MOLM-13 cells (setting [5]) was above 1000 nM; with MOLM-13 cells (setting [6]), 10 to 100 nM; in the test on MV4;11 cells (setting [7]), 100 to 1000 nM; in the test with MV4;11 cells (setting [8]), 10 to 100 nM.

For the compound `O=C1CCC(N2C(=O)c3ccc(OCCCCCCn4cc(-c5cnc6ccccc6n5)cn4)cc3C2=O)C(=O)N1` (stereo not drawn) [GS-354, 2-(2,6-Dioxopiperidin-3-yl)-5-((6-(4-(quinoxalin-2-yl)-1H-pyrazol-1-yl)hexyl)oxy)isoindoline-1,3-dione], the IC50 with MOLM-13 cells (setting [1]), in the test on MOLM-13 cells (setting [2]), with MV4;11 cells (setting [3]) and in the test with MV4;11 cells (setting [4]) was above 1000 nM in each case.

Take `O=C1CCC(N2C(=O)c3ccc(NCCCn4cc(-c5cnc6ccccc6n5)cn4)cc3C2=O)C(=O)N1` (stereo not drawn) [GS-355, 2-(2,6-Dioxopiperidin-3-yl)-5-((3-(4-(quinoxalin-2-yl)-1H-pyrazol-1-yl)propyl)amino)isoindoline-1,3-dione]: the IC50 was above 1000 nM in the test on MOLM-13 cells (setting [1]), 100 to 1000 nM in the test on MOLM-13 cells (setting [2]), above 1000 nM with MV4;11 cells (setting [3]) and 10 to 100 nM in the test with MV4;11 cells (setting [4]).

Consider `O=C1CCC(N2C(=O)c3ccc(NCCCCCn4cc(-c5cnc6ccccc6n5)cn4)cc3C2=O)C(=O)N1` (stereo not drawn) [GS-356, 2-(2,6-Dioxopiperidin-3-yl)-5-((5-(4-(quinoxalin-2-yl)-1H-pyrazol-1-yl)pentyl)amino)isoindoline-1,3-dione], for which the IC50 with MOLM-13 cells (setting [1]) was above 1000 nM; with MOLM-13 cells (setting [2]), 100 to 1000 nM; in the test with MV4;11 cells (setting [3]), 100 to 1000 nM; in the test on MV4;11 cells (setting [4]) it was 100 to 1000 nM.

Consider `O=C1CCC(N2C(=O)c3ccc(NCCNc4cccc(-n5cc(-c6cnc7cccc(Br)c7n6)cn5)c4)cc3C2=O)C(=O)N1` (stereo not drawn) [GS-357, 5-((2-((3-(4-(8-Bromoquinoxalin-2-yl)-1H-pyrazol-1-yl)phenyl)amino)ethyl)amino)-2-(2,6-dioxopiperidin-3-yl)isoindoline-1,3-dione], for which the IC50 in the test with MOLM-13 cells (setting [5]), in the test with MOLM-13 cells (setting [6]), with MV4;11 cells (setting [7]) and in the test with MV4;11 cells (setting [8]) was 10 to 100 nM each time.

Turning to `O=C1CCC(N2C(=O)c3ccc(C4CCN(CCCn5cc(-c6cnc7ccccc7n6)cn5)CC4)cc3C2=O)C(=O)N1` (stereo not drawn) [GS-358, 2-(2,6-Dioxopiperidin-3-yl)-5-(1-(3-(4-(quinoxalin-2-yl)-1H-pyrazol-1-yl)propyl)piperidin-4-yl)isoindoline-1,3-dione], the IC50 in the test with MOLM-13 cells (setting [5]), in the test with MOLM-13 cells (setting [6]), in the test with MV4;11 cells (setting [7]) and with MV4;11 cells (setting [8]) was above 1000 nM in each case.

As for `O=C(CN1CCCC(N2CCN(c3ccccn3)CC2)C1)NCc1ccc2c(c1)C(=O)N(C1CCC(=O)NC1=O)C2=O` (stereo not drawn) [GS-359, N-((2-(2,6-Dioxopiperidin-3-yl)-1,3-dioxoisoindolin-5-yl)methyl)-2-(3-(4-(pyridin-2-yl)piperazin-1-yl)piperidin-1-yl)acetamide], the IC50 in the test with MOLM-13 cells (setting [1]), with MOLM-13 cells (setting [2]), with MV4;11 cells (setting [3]) and with MV4;11 cells (setting [4]) was above 1000 nM throughout.

Consider `O=C1CCC(N2C(=O)c3ccc(NCCCCn4cc(-c5cnc6ccccc6n5)cn4)cc3C2=O)C(=O)N1` (stereo not drawn) [GS-360, 2-(2,6-Dioxopiperidin-3-yl)-5-((4-(4-(quinoxalin-2-yl)-1H-pyrazol-1-yl)butyl)amino)isoindoline-1,3-dione], for which the IC50 in the test on MOLM-13 cells (setting [1]) was above 1000 nM; in the test on MOLM-13 cells (setting [2]) it was 10 to 100 nM; with MV4;11 cells (setting [3]), 100 to 1000 nM; in the test on MV4;11 cells (setting [4]) it was 100 to 1000 nM.

`O=C1CCC(N2Cc3cc(NCCCCCCn4cc(-c5cnc6ccccc6n5)cn4)ccc3C2=O)C(=O)N1` (stereo not drawn) [GS-361, 3-(1-Oxo-5-((6-(4-(quinoxalin-2-yl)-1H-pyrazol-1-yl)hexyl)amino)isoindolin-2-yl)piperidine-2,6-dione]: the IC50 in the test with MOLM-13 cells (setting [1]) was above 1000 nM; with MOLM-13 cells (setting [2]) it was 10 to 100 nM; in the test on MV4;11 cells (setting [3]), 100 to 1000 nM; with MV4;11 cells (setting [4]), 10 to 100 nM.

On to `O=C1CCC(N2C(=O)c3ccc(NCCNc4cccc(N5CCC(n6cc(-c7cnc8cccc(Br)c8n7)cn6)CC5)c4)cc3C2=O)C(=O)N1` (stereo not drawn) [GS-362, 5-((2-((3-(4-(4-(8-Bromoquinoxalin-2-yl)-1H-pyrazol-1-yl)piperidin-1-yl)phenyl)amino)ethyl)amino)-2-(2,6-dioxopiperidin-3-yl)isoindoline-1,3-dione], for which the IC50 with MOLM-13 cells (setting [5]), with MOLM-13 cells (setting [6]), with MV4;11 cells (setting [7]) and with MV4;11 cells (setting [8]) was below 10 nM throughout.

As for `O=C1CCC(N2C(=O)c3ccc(N4CCC(CCCn5cc(-c6cnc7ccccc7n6)cn5)CC4)cc3C2=O)C(=O)N1` (stereo not drawn) [GS-363, 2-(2,6-Dioxopiperidin-3-yl)-5-(4-(3-(4-(quinoxalin-2-yl)-1H-pyrazol-1-yl)propyl)piperidin-1-yl)isoindoline-1,3-dione], the IC50 in the test with MOLM-13 cells (setting [1]) is above 1000 nM; with MOLM-13 cells (setting [2]) it was above 1000 nM; in the test with MV4;11 cells (setting [3]) it was 100 to 1000 nM; in the test on MV4;11 cells (setting [4]), 100 to 1000 nM.
